Test results as given in US10259808B2 (Genentech, Inc., priority 2015, dated 2019).
pIC50: −log10 of the molar value.

Target: T1, RORc ligand binding domain (Homo sapiens, UniProt P51449)
T1 sequence (P51449 269-508 limits assumed): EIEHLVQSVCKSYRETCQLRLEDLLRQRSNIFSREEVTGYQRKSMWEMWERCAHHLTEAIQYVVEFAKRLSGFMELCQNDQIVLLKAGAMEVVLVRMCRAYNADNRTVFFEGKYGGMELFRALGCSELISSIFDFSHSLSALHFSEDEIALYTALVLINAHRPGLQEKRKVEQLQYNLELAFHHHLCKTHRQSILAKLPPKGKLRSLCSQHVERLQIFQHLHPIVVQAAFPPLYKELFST
Assay: In vitro RORc ligand binding assay (25-[3H]hydroxycholesterol displacement)

| SMILES | pIC50 |
| --- | --- |
| C[C@H]1CC[C@H](c2ccccc2)S(=O)(=O)N1Cc1cc(F)c(C2(NCc3cnccn3)COC2)cc1F [Example 89, 3-[2,5-difluoro-4-[[(3S,6R)-3-methyl-1,1-dioxo-6-phenyl-thiazinan-2-yl]methyl]phenyl]-N-(pyrazin-2-ylmethyl)oxetan-3-amine] | 8.15 |
| CNc1nnc(C2(c3cc(F)c(CN4[C@@H](C)CC[C@H](c5ccccc5)S4(=O)=O)cc3F)CCOCC2)o1 [Example 90, 5-[4-[2,5-difluoro-4-[[(3S,6R)-3-methyl-1,1-dioxo-6-phenyl-thiazinan-2-yl]methyl]phenyl]tetrahydropyran-4-yl]-N-methyl-1,3,4-oxadiazol-2-amine] | 7.86 |
| C[C@H]1CC[C@H](c2ccccc2)S(=O)(=O)N1Cc1cc(F)c(C2(NCc3ccn(C)n3)CCOCC2)cc1F [Example 91, 4-[2,5-difluoro-4-[[(3S,6R)-3-methyl-1,1-dioxo-6-phenyl-thiazinan-2-yl]methyl]phenyl]-N-[(1-methylpyrazol-3-yl)methyl]tetrahydropyran-4-amine] | 7.08 |
| C[C@H]1CC[C@H](c2ccccc2)S(=O)(=O)N1Cc1cc(F)c(C2(NCc3nnc[nH]3)CCOCC2)cc1F [Example 92, 4-[2,5-difluoro-4-[[(3S,6R)-3-methyl-1,1-dioxo-6-phenyl-thiazinan-2-yl]methyl]phenyl]-N-(4H-1,2,4-triazol-3-ylmethyl)tetrahydropyran-4-amine] | 7.63 |
| Cc1cc(C(=O)NC2(c3cc(F)c(CN4[C@@H](C)CC[C@H](c5ccccc5)S4(=O)=O)cc3F)CCOCC2)no1 [Example 93, N-[4-[2,5-difluoro-4-[[(3,6R)-3-methyl-1,1-dioxo-6-phenyl-thiazinan-2-yl]methyl]phenyl]tetrahydropyran-4-yl]-5-methyl-isoxazole-3-carboxamide] | 7.36 |
| C[C@H]1CC[C@H](c2ccccc2)S(=O)(=O)N1Cc1cc(F)c(C2(NC(=O)Cc3ccon3)COC2)cc1F [Example 94, N-[3-[2,5-difluoro-4-[[(3S,6R)-3-methyl-1,1-dioxo-6-phenyl-thiazinan-2-yl]methyl]phenyl]oxetan-3-yl]-2-isoxazol-3-yl-acetamide] | 7.75 |
| Cc1cc(CNC2(c3cc(F)c(CN4[C@@H](C)CC[C@H](c5ccccc5)S4(=O)=O)cc3F)COC2)no1 [Example 95, 3-[2,5-difluoro-4-[[(3S,6R)-3-methyl-1,1-dioxo-6-phenyl-thiazinan-2-yl]methyl]phenyl]-N-[(5-methylisoxazol-3-yl)methyl]oxetan-3-amine] | 7.69 |
| C[C@H]1CC[C@H](c2ccccc2)S(=O)(=O)N1Cc1cc(F)c(C2(NC(=O)c3cocn3)COC2)cc1F [Example 96, N-[3-[2,5-difluoro-4-[[(3S,6R)-3-methyl-1,1-dioxo-6-phenyl-thiazinan-2-yl]methyl]phenyl]oxetan-3-yl]oxazole-4-carboxamide] | 7.45 |
| C[C@H]1CC[C@H](c2ccccc2)S(=O)(=O)N1Cc1cc(F)c(C2(NC(=O)c3ccon3)COC2)cc1F [Example 97, N-[3-[2,5-difluoro-4-[[(3S,6R)-3-methyl-1,1-dioxo-6-phenyl-thiazinan-2-yl]methyl]phenyl]oxetan-3-yl]isoxazole-3-carboxamide] | 7.65 |
| C[C@H]1CC[C@H](c2ccccc2)S(=O)(=O)N1Cc1cc(F)c(C2(N3C[C@H](CO)OC3=O)CCOCC2)cc1F [Example 98, (5R)-3-[4-[2,5-difluoro-4-[[(3S,6R)-3-methyl-1,1-dioxo-6-phenyl-thiazinan-2-yl]methyl]phenyl]tetrahydropyran-4-yl]-5-(hydroxymethyl)oxazolidin-2-one] | 7.17 |
| C[C@H]1CC[C@H](c2ccccc2)S(=O)(=O)N1Cc1cc(F)c(C2(N3C[C@@H](CO)OC3=O)CCOCC2)cc1F [Example 99, (5S)-3-[4-[2,5-difluoro-4-[[(3S,6R)-3-methyl-1,1-dioxo-6-phenyl-thiazinan-2-yl]methyl]phenyl]tetrahydropyran-4-yl]-5-(hydroxymethyl)oxazolidin-2-one] | 7.23 |
| C[C@H]1CC[C@H](c2ccccc2)S(=O)(=O)N1Cc1cc(F)c(C2(NCc3cnco3)COC2)cc1F [Example 100, 3-[2,5-difluoro-4-[[(3S,6R)-3-methyl-1,1-dioxo-6-phenyl-thiazinan-2-yl]methyl]phenyl]-N-(oxazol-5-ylmethyl)oxetan-3-amine] | 7.47 |
| C[C@H]1CC[C@H](c2ccccc2)S(=O)(=O)N1Cc1cc(F)c(C2(Nc3ncccn3)COC2)cc1F [Example 101, N-[3-[2,5-difluoro-4-[[(3S,6R)-3-methyl-1,1-dioxo-6-phenyl-thiazinan-2-yl]methyl]phenyl]oxetan-3-yl]pyrimidin-2-amine] | 7.22 |
| C[C@H]1CC[C@H](c2ccccc2)S(=O)(=O)N1Cc1cc(F)c(C2(N3CCOC3=O)CCOCC2)cc1F [Example 102, 3-[4-[2,5-difluoro-4-[[(3S,6R)-3-methyl-1,1-dioxo-6-phenyl-thiazinan-2-yl]methyl]phenyl]tetrahydropyran-4-yl]oxazolidin-2-one] | 7.26 |
| C[C@H]1CC[C@H](c2ccccc2)S(=O)(=O)N1Cc1cc(F)c(C2(NCc3ccon3)COC2)cc1F [Example 103, 3-[2,5-difluoro-4-[[(3S,6R)-3-methyl-1,1-dioxo-6-phenyl-thiazinan-2-yl]methyl]phenyl]-N-(isoxazol-3-ylmethyl)oxetan-3-amine] | 8.82 |
| C[C@H]1CC[C@H](c2ccccc2)S(=O)(=O)N1Cc1cc(F)c(C2(NC(=O)Cc3ccon3)CCOCC2)cc1F [Example 104, N-[4-[2,5-difluoro-4-[[(3S,6R)-3-methyl-1,1-dioxo-6-phenyl-thiazinan-2-yl]methyl]phenyl]tetrahydropyran-4-yl]-2-isoxazol-3-yl-acetamide] | 8.59 |
| C[C@H]1CC[C@H](c2ccccc2)S(=O)(=O)N1Cc1cc(F)c(C2(Nc3cnccn3)COC2)cc1F [Example 105, N-[3-[2,5-difluoro-4-[[(3S,6R)-3-methyl-1,1-dioxo-6-phenyl-thiazinan-2-yl]methyl]phenyl]oxetan-3-yl]pyrazin-2-amine] | 8.66 |
| C[C@H]1CC[C@H](c2ccccc2)S(=O)(=O)N1Cc1cc(F)c(C2(NC(=O)c3cc(=O)[nH]o3)COC2)cc1F [Example 106, N-[3-[2,5-difluoro-4-[[(3S,6R)-3-methyl-1,1-dioxo-6-phenyl-thiazinan-2-yl]methyl]phenyl]oxetan-3-yl]-3-oxo-isoxazole-5-carboxamide] | 8.29 |
| C[C@H]1CC[C@H](c2ccccc2)S(=O)(=O)N1Cc1cc(F)c(C2(NC(=O)c3ccon3)CCOCC2)cc1F [Example 107, N-[4-[2,5-difluoro-4-[[(3S,6R)-3-methyl-1,1-dioxo-6-phenyl-thiazinan-2-yl]methyl]phenyl]tetrahydropyran-4-yl]isoxazole-3-carboxamide] | 8.57 |
| Cc1cncc(C(=O)NC2(c3cc(F)c(CN4[C@@H](C)CC[C@H](c5ccccc5)S4(=O)=O)cc3F)CCOCC2)n1 [Example 108, N-[4-[2,5-difluoro-4-[[(3S,6R)-3-methyl-1,1-dioxo-6-phenyl-thiazinan-2-yl]methyl]phenyl]tetrahydropyran-4-yl]-6-methyl-pyrazine-2-carboxamide] | 7.72 |
| Cc1cncc(C(=O)NC2(c3cc(F)c(CN4[C@@H](C)CC[C@H](c5ccccc5)S4(=O)=O)cc3F)COC2)n1 [Example 109, N-[3-[2,5-difluoro-4-[[(3S,6R)-3-methyl-1,1-dioxo-6-phenyl-thiazinan-2-yl]methyl]phenyl]oxetan-3-yl]-6-methyl-pyrazine-2-carboxamide] | 6.95 |
| Cc1cc(COC2(c3cc(F)c(CN4[C@@H](C)CC[C@H](c5ccccc5)S4(=O)=O)cc3F)COC2)no1 [Example 110, (3S,6R)-2-[[2,5-difluoro-4-[3-[(5-methylisoxazol-3-yl)methoxy]oxetan-3-yl]phenyl]methyl]-3-methyl-6-phenyl-thiazinane 1,1-dioxide] | 8.89 |
| C[C@H]1CC[C@H](c2ccccc2)S(=O)(=O)N1Cc1cc(F)c(C2(NC[C@@H]3CCC(=O)N3)COC2)cc1F [Example 111, (5S)-5-[[[3-[2,5-difluoro-4-[[(3S,6R)-3-methyl-1,1-dioxo-6-phenyl-thiazinan-2 yl]methyl]phenyl]oxetan-3-yl]amino]methyl]pyrrolidin-2-one] | 7.05 |
| COC1(OC)CC(c2nnc[nH]2)(c2cc(F)c(CN3[C@@H](C)CC[C@H](c4ccccc4)S3(=O)=O)cc2F)C1 [Example 112, (3S,6R)-2-[[4-[3,3-dimethoxy-1-(4H-1,2,4-triazol-3-yl)cyclobutyl]-2,5-difluoro-phenyl]methyl]-3-methyl-6-phenyl-thiazinane 1,1-dioxide] | 8.34 |
| C[C@H]1CC[C@H](c2ccccc2)S(=O)(=O)N1Cc1cc(F)c(C2(c3nnc[nH]3)CC(=O)C2)cc1F [Example 113, 3-[2,5-difluoro-4-[[(3S,6R)-3-methyl-1,1-dioxo-6-phenyl-thiazinan-2-yl]methyl]phenyl]-3-(4H-1,2,4-triazol-3-yl)cyclobutanone] | 8.09 |
| C[C@H]1CC[C@H](c2ccccc2)S(=O)(=O)N1Cc1cc(F)c(C2(c3nnc[nH]3)CC(F)(F)C2)cc1F [Example 114, (3S,6R)-2-[[4-[3,3-difluoro-1-(4H-1,2,4-triazol-3-yl)cyclobutyl]-2,5-difluoro-phenyl]methyl]-3-methyl-6-phenyl-thiazinane 1,1-dioxide] | 8.44 |
| C[C@H]1CC[C@H](c2ccccc2)S(=O)(=O)N1Cc1cc(F)c([C@]2(c3nnc[nH]3)C[C@@H](O)C2)cc1F [Example 115, 3-[2,5-difluoro-4-[[(3S,6R)-3-methyl-1,1-dioxo-6-phenyl-thiazinan-2-yl]methyl]phenyl]-3-(4H-1,2,4-triazol-3-yl)cyclobutanol] | 8.11 |
